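Cells were grown in 96-well plates and exposed to each compound for 48 hours at five concentrations; endpoints were interpolated linearly between bracketing concentrations, or set to the highest concentration if not reached. TGI: concentration producing complete growth inhibition.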
Columns and labels:
Assay in all cases: NCI tumour cell line growth inhibition, 48 h
RPMI-8226 leukemia = tested on: RPMI-8226 leukemia
OVCAR-8 ovarian = tested on: OVCAR-8 ovarian
TK-10 renal = tested on: TK-10 renal
786-0 renal = tested on: 786-0 renal
SF-268 CNS = tested on: SF-268 CNS
SR leukemia = tested on: SR leukemia
CAKI-1 renal = tested on: CAKI-1 renal
K-562 leukemia = tested on: K-562 leukemia
HS 578T breast = tested on: HS 578T breast
MDA-MB-231 breast = tested on: MDA-MB-231 breast

SMILES | TGI (RPMI-8226 leukemia) | TGI (OVCAR-8 ovarian) | TGI (TK-10 renal) | TGI (786-0 renal) | TGI (SF-268 CNS) | TGI (SR leukemia) | TGI (CAKI-1 renal) | TGI (K-562 leukemia) | TGI (HS 578T breast) | TGI (MDA-MB-231 breast)
O=C(Nc1cccc(O)c1)C(=O)C(C(=O)c1ccc(Cl)c(Cl)c1)C1OC(=O)c2ccccc21 (centres undefined) | 54.5 µM | 37.8 µM | 60.3 µM | 26.4 µM | 33.7 µM | 26.6 µM | 75 µM | 48.9 µM | – | –
O=[N+]([O-])C1Cc2ccccc2OC1c1ccccc1 (centres undefined) | – | > 100 µM | > 100 µM | > 100 µM | > 100 µM | 66.6 µM | 99 µM | > 100 µM | – | –
O=C1OC(O)C(Oc2c(Cl)cccc2Cl)=C1Cl (centres undefined) | 57 µM | 37.9 µM | 69.1 µM | 32.2 µM | 31.3 µM | 54.1 µM | 48 µM | 48 µM | – | –
CN(C)c1nc(=Nc2cccc(Cl)c2)ss1 | 17.5 µM | 25.6 µM | > 100 µM | 25.6 µM | 30.4 µM | 34 µM | 33.4 µM | 41.8 µM | – | –
O=C1CCCCCCCCCCC1CN1CCCCC1 (centres undefined) | > 100 µM | > 100 µM | > 100 µM | > 100 µM | > 100 µM | > 100 µM | – | > 100 µM | – | –
CCOC(=N)CC(=O)c1ccccc1 | – | > 100 µM | > 100 µM | > 100 µM | > 100 µM | > 100 µM | > 100 µM | > 100 µM | – | –
Cn1c(=O)c2nc(-c3ccc(Cl)cc3)oc2n(C)c1=O | > 100 µM | > 100 µM | > 100 µM | > 100 µM | > 100 µM | > 100 µM | > 100 µM | > 100 µM | – | –
CCOC(=N)/C(=C1\OC(N)=C(c2ccc(Cl)cc2)C1=O)c1ccc(Cl)cc1 | 47.6 µM | 28.7 µM | 51.9 µM | 32.7 µM | 31.3 µM | 56.5 µM | 62.8 µM | 53.6 µM | – | –
Cc1c(C(=O)/C=C/c2ccccc2O)c(=O)n(-c2ccccc2)n1C | – | 40.7 µM | > 100 µM | 70 µM | > 100 µM | – | 73.8 µM | – | – | –
CCCN(CCCC(NC(C)=O)C(=O)NCc1ccccc1)C(=O)NCCCl (centres undefined) | > 100 µM | > 100 µM | > 100 µM | > 100 µM | > 100 µM | > 100 µM | > 100 µM | > 100 µM | – | –
COC(=O)C(Cc1nc2ccccc2[nH]c1=O)C(=O)C(=O)Nc1ccc([N+](=O)[O-])cc1[N+](=O)[O-] (centres undefined) | 85.1 µM | 52.6 µM | 61.4 µM | 32 µM | 47.7 µM | > 100 µM | > 100 µM | > 100 µM | – | –
CC(C)(C)C1CCC2c3c([nH]c4ccccc34)C3C(=O)N(c4ccccc4)C(=O)C3C2C1 (centres undefined) | 28.4 µM | 17.8 µM | 12.5 µM | 26 µM | 52.5 µM | – | – | 15.8 µM | – | –
O=S1Nc2c(Cl)cc(Cl)c3c(Cl)cc(Cl)c(c23)N1 | > 100 µM | > 100 µM | > 100 µM | 41.9 µM | > 100 µM | – | 95.2 µM | > 100 µM | – | –
CC[N+]1(C)CCC(O)(c2ccc(OC)cc2)C(C(=O)c2ccc(OC)cc2)C1 (centres undefined) | 5.92 µM | 59.4 µM | 20.4 µM | 9.05 µM | 56 µM | 5.61 µM | 11 µM | > 22.4 µM | 7.43 µM | –
CCc1cc(CCC(=O)Nc2c(C)cccc2C)[nH]n1 | > 100 µM | > 100 µM | > 100 µM | > 100 µM | > 100 µM | > 100 µM | > 100 µM | > 100 µM | – | –
Cc1cc(Cl)ccc1NC(=O)C(=O)C(C(=O)c1ccc2ccccc2c1)C1OC(=O)c2ccccc21 (centres undefined) | 35.5 µM | > 100 µM | – | 22.1 µM | 60.5 µM | – | 35.5 µM | 33.8 µM | – | –
COc1ccc(C2SCC(=O)N2NC(=O)c2ccc(NC(C)=O)cc2)cc1 (centres undefined) | > 100 µM | > 100 µM | > 100 µM | > 100 µM | > 100 µM | – | – | > 100 µM | > 100 µM | > 100 µM
CN1C(=O)C(=O)c2cc3c(c4c2c1cc1ccccc14)OCO3 | > 100 µM | > 100 µM | > 100 µM | > 100 µM | > 100 µM | 54.8 µM | > 100 µM | > 100 µM | – | –
CSc1n[n+]2c(s1)SCCC2 | – | > 100 µM | > 100 µM | > 100 µM | > 100 µM | > 100 µM | > 100 µM | > 100 µM | – | –
O=C1C(Cl)C(c2ccccc2O)N1n1cnc2ccccc2c1=O (centres undefined) | > 100 µM | > 100 µM | > 100 µM | > 100 µM | > 100 µM | > 100 µM | > 100 µM | > 100 µM | – | –

Reference: PubChem BioAssay (NCI)
